Laboratory results as given in PMC6928796, “Near-Infrared Markers based on Bacterial Phytochromes with Phycocyanobilin as a Chromophore” (International Journal of Molecular Sciences, 2019).

Assays:
iRFP713 [1] = biological target: T1, iRFP713 (Rhodopseudomonas palustris, UniProt G1FNL7, C15S); assay: absorption and fluorescence spectroscopy; BV/PCB competition; type: binding; conditions: not covalent; overnight with both tetrapyrroles, BV to PCB molar ratio 0.02 to 80
T1 construct: gene iRFP

iRFP713 [2] = biological target: T1, iRFP713; assay: absorption, fluorescence, zinc-stained SDS-PAGE; BV/PCB competition; type: binding; conditions: not covalent; apoprotein with 2-fold excess PCB, pH 8.0, 4 °C

Row | Compound | absorption and fluorescence spectroscopy; BV/PCB competition (iRFP713 [1]) | absorption, fluorescence, zinc-stained SDS-PAGE; BV/PCB competition (iRFP713 [2])
1 | C=CC1=C(C)C(=Cc2[nH]c(C=C3N=C(C=C4NC(=O)C(C)=C4C=C)C(C)=C3CCC(=O)O)c(CCC(=O)O)c2C)NC1=O [BV, biliverdin IXα] | The binding affinity of BV ligand to iRFP713/C15S | –
2 | C/C=C1/C(=C/c2[nH]c(/C=C3N=C(/C=C4\NC(=O)C(CC)=C4C)C(C)=C\3CCC(=O)O)c(CCC(=O)O)c2C)NC(=O)[C@@H]1C [PCB, phycocyanobilin] | – | iRFP713/C15S, lacking the conserved Cys15 residue, forms a fluorescent complex with PCB
